# Test results from patent US20080171370A1, “DETOXIFYING PRE-TREATED LIGNOCELLULOSE-CONTAINING MATERIALS” (Novozymes North America, Inc., priority 2006, published 2008).
# Entries after “also recorded” stand apart in the source; their conditions may differ.
# What was measured:
# [1] = test system: RED STAR Ethanol Red yeast; test: Fermentation of detoxified fully unwashed pretreated corn stover (fuwPCS) filtrate, Example 1; format: cell-based; conditions: for average ethanol yield: 24 hours fermentation, 0.2 g/L yeast, 32° C., pH 5.0
# Method: Yeast Preparation: Freeze-dried RED STAR™ Ethanol Red yeast re-hydrated in 10×YP media for 30 minutes at 32° C. It was dosed into the fermentations at a dose of 0.2 g/L.
# Dilute acid steam exploded corn stover (PCS) was diluted with water and adjusted to pH 5.0 with NH4OH. The total solids (TS) level was 15 wt.-%. This sample was then saccharified for 63 hours at 50° C. with Cellutolytic Preparation A. Penicillin was added at a rate of 1 gl/L also added prior to saccharification was citrate buffer at a rate of 50 mL of 1 M citrate buffer per 100 ml of substrate. Following the saccharification step, the sample was filtered via a 0.2 micron Nalgene vacuum fitter system (Product # 8-000043-0803) to remove the solids and used for fermentation. The fuwPCS was then pipetted into separate sterile, 15 mL conical centrifuge tubes containing a small CO2 vent hole.
# The pH was adjusted to about 2 using H2SO4; gallic acid was dosed at concentrations of 2 mM (GaA-L) and at 10 mM (GaA-H). The gallic acid was prepared by sonicating […] of garlic acid in 100 ml of de-ionized water. The broth was allowed to stand at 20° C. overnight and then readjusted to pH 5 using NaOH before adding yeast.
# The dosing for amidase was carried out by treating with 5.6 Units/5 g substrate (AMD-L) and also 56 Units/5 g substrate (AMD-H). The amidase treated samples were brought to a pH of 7 with NaOH and allowed to sit in an oven at a temperature of 37° C. for 18 hours as a pre-treatment.
# Fermentations were carried out in sterile 15 mL conical plastic centrifuge tubes at 32° C. for 48 hours at pH 5.0. A total of 5 grams of sample was fermented for each treatment. Treatments were run in triplicate.
# Fermentation samples were collected after 24 hours for the 0.2 g/L yeast dose and analyzed for acetic acid and ethanol using an Agilent HPLC System with an analytical BIO-RAD Aminex HPX-87H column and a BIO-RAD Cation H refill guard column.
# [2] = test system: RED STAR Ethanol Red yeast; test: Fermentation of enzyme-detoxified fuwPCS filtrate at 37° C., Example 2; format: cell-based; conditions: detoxified 19 hours
# Method: Dilute acid steam exploded corn stover (PCS) was diluted with water and adjusted to pH 5.0 with NH4OH. The total solids (TS) level was 16%. This sample was then saccharified for 72 hours at 50° C. with Cellulolytic Preparation A. Penicillin and citrate buffer were also added prior to saccharification. Following the saccharification step, the sample was filtered to remove the solids and the filtrate was used for fermentation. The fuwPCS was then pipetted into separate sterile, 15 mL conical centrifuge tubes containing a small CO2 vent hole.
# Freeze-dried RED STAR™ Ethanol Red yeast was re-hydrated in 10×YP media for 30 minutes at 32° C. it was dosed into the fermentations at a dose of 0.2 g/L.
# Filtered, unwashed PCS was detoxified for 19 hours using the optimal conditions for each enzyme. For amidase, the pH of the fuwPCS was first adjusted up to 7.0 using NaOH, the amidase was added at the tested dosages, and the tubes were incubated at 37° C. The pH of the fuwPCS was then readjusted to 5.0 using H2SO4 prior to fermentation. For the carbonic anhydrase the pH was left at 5.0, the enzyme was added and the tubes were incubated at 37° C. All enzymes were diluted with de-ionized water prior to dosing. Dosing ranges for each enzyme were as follows in units/mL of the final solution for amidase and kilo units/mL for carbonic anhydrase.
# A total of 3.5 grams of sample was fermented for each treatment and the initial pH for all fermentations was 5.0. Treatments were run in triplicate. The final TS level was 13.7 wt.-%. These fermentations were run at a higher temperature of 37° C.
# Fermentation samples were collected after 12 and 24 hours and analyzed for ethanol using an Agilent HPLC System with an analytical BIO-RAD Aminex HPX-87H column and a BIO-RAD Cation-H refill guard column.
molecule,measurement,setting,value
"O=C(O)c1cc(O)c(O)c(O)c1 [Gallic acid, 3,4,5-trihydroxybenzoic acid]",average ethanol yield,"[1]; gallic acid high dose (GaA-H) 10 mM, pH about 2, 20° C. overnight",17.8 g/L
same,average ethanol yield,"[1]; gallic acid low dose (GaA-L) 2 mM, pH about 2, 20° C. overnight",19.4 g/L
same,amount of acetic acid present in the fermentation,"[1]; gallic acid versus control, FIG. 2",significant drop
amidase: amidase from Pseudomonas aeruginosa (Sigma Product # A6691),effect on ethanol production by the yeast,"[2]; all amidase doses tested (0.3-1.1-5.4-16.1), pH 7.0, 37° C., after 12 hours of fermentation",significant boosting effect
same,effect on ethanol production by the yeast,"[2]; all amidase doses tested (0.3-1.1-5.4-16.1), pH 7.0, 37° C., after 24 hours of fermentation",boost in ethanol yield; also recorded: significant boosting effect
same,average ethanol yield,"[1]; amidase high dose (AMD-H) 56 Units/5 g substrate, pre-treatment pH 7, 37° C., 18 hours",23.6 g/L
same,average ethanol yield,"[1]; amidase low dose (AMD-L) 5.6 Units/5 g substrate, pre-treatment pH 7, 37° C., 18 hours",21.8 g/L
"carbonic anhydrase: carbonic anhydrase from bovine erythrocytes (lyophilized powder, ≧2,500 W-A units/mg protein) Sigma Product # C3934",effect on ethanol production by the yeast,"[2]; highest dose of carbonic anhydrase (33.3; 243 kilo units/g TS), pH 5.0, 37° C., after 12 hours of fermentation",boost in ethanol production; also recorded: significant boosting effects
same,effect on ethanol production by the yeast,"[2]; highest dose of carbonic anhydrase (33.3; 243 kilo units/g TS), pH 5.0, 37° C., after 24 hours of fermentation",significant boosting effects
